Results published in article PMC10987543 (Cell Death Discovery, 2024).
Entries after “also recorded” stand apart in the source; their conditions may differ. Ends that are not written are not given here.

Key:
HUVECs = test: BrdU incorporation cell proliferation assay; assay type: cell-based, human; settings: at a concentration in which CKS1 did not induce LDH release, N = 3
Method: One thousands cells were seeded in wells of a 96-well plate. The cells were treated with the indicated concentration of CKS1 immediately after seeding. Forty-eight hours later, 5-bromo-2’-deoxyuridine (BrdU) was added to each well. Twenty four hours later, BrdU incorporation was quantified using the BrdU cell proliferation assay kit (Cell Signaling Technology, Danvers, MA) following the manufacturer’s instructions.

4T1 cells [1] = test: Transmission electron microscopy of treated cells; assay type: cell-based, murine; settings: 100 µM
Method: Samples were fixed in 2.5% glutaraldehyde, 3 mM MgCl2 in 0.1 M sodium cacodylate buffer, pH 7.2 overnight at 4 °C. After buffer rinse, samples were postfixed in 2% osmium tetroxide in 0.1 M sodium cacodylate for at least 1 h (no more than two) on ice in the dark. After osmium, samples were rinsed in 0.1 M Maleate buffer (pH 6.2), followed by uranyl acetate in 0.1 M Maleate (0.22 µm filtered, 1 h, dark), dehydrated in a graded series of ethanol and embedded in Epon (PolySci) resin. Samples were polymerized at 60 °C overnight. Thin sections, 60–90 nm, were cut with a diamond knife on a Leica UCT ultramicrotome and picked up with 2 × 1 mm Formvar copper slot grids. Grids were stained with 2% uranyl acetate (aq.) followed by lead citrate and observed with a Hitachi 7600 TEM at 80 kV. Images were captured with an AMT CCD XR80 (8-megapixel camera—side mount AMT XR80—high-resolution high-speed camera).

4T1 cells [2] = test: JC-1 mitochondrial membrane potential live cell imaging; assay type: cell-based, murine; settings: 100 µM
Method: Fluorescence labeling of cells was performed by seeding 5.0 × 10^4 4T1 cells in a 35 mm dish on a collagen-coated No. 1.5 coverslip with a 14 mm glass diameter (MatTek, Ashland, MA). After overnight incubation, the cells were washed once with serum-free media and replaced with fresh serum-free media. For cell cytosol labeling, Calcein-AM (Thermo Fisher Scientific, C1430) was added at a final concentration of 5 µg/mL and incubated for 10 min. For mitochondrial membrane labeling, JC-1 (Thermo Fisher Scientific, T3168) was added at a final concentration of 10 µg/mL and incubated for 10 min. To monitor the activity of caspases, CellEvent Caspase-3/7 Red detection reagents (Thermo Fisher Scientific, C10423) were used following the manufacturer’s instructions. For nuclear staining, Hoechst 33342 (Cell Signaling Technology, #4082) was added at a final concentration of 5 µg/mL and incubated for 10 min.
Cells were imaged on either a Zeiss LSM 700 or a 3i spinning disk confocal microscope. Samples were imaged with optimized microscope settings. […]
Image processing was performed using Fiji software. […] For quantification, CellProfiler was used. After cell segmentation based on the nucleus, the intensity of the signal of interest was quantified for each cell. Based on the intensity, each cells were labeled as positive or negative and the fraction of positive cells was calculated.

caspase-3 = test: Caspase-3 activity assay in cell lysate; assay type: cell-based, murine; settings: 4T1 cells, 100 µM, N = 3
Method: Ten thousand 4T1 cells were seeded in 96-well plates and incubated overnight. After CKS1 treatment, the cells were lysed using a lysis buffer (Cell Signaling Technology, #7018). The activity of caspase-3 in the cell lysate was quantified using the caspase-3 activity assay kit (Cell Signaling Technology, #5723) following the manufacturer’s instructions. Briefly, the cell lysate was incubated with a substrate of caspase-3 which was designed to emit fluorescence when cleaved. After incubation, the fluorescence was measured using a plate reader. The protein concentration of the cell lysate was quantified using the DC protein assay kit (Bio-Rad). The caspase-3 activity was divided by the protein concentration to obtain the caspase-3 activity per µg/mL protein in the cell lysate.

4T1 cells [3] = test: Quantification of HMGB-1 release (ELISA); assay type: cell-based, murine; settings: 100 µM, 6 h, N = 3
Method: (§1) Fifteen thousand cells of 4T1 cells or CT26 cells in growth media were seeded in wells of a 96-well plate. After 12 h, the media was replaced with serum-free media, and the cells were treated with the corresponding concentration of CKS1. The cells were treated with CKS1 for 6 h and the supernatant was collected from each well. After filtering the supernatant with a 0.2 µm pore filter (Corning, 431229), the amount of HMGB-1 in the supernatant was quantified using the Mouse/Rat HMGB1 ELISA kit (arigo biolaboratories, ARG81310).

CT26 cells = test: Quantification of HMGB-1 release (ELISA); assay type: cell-based, murine; settings: 100 µM, 6 h, N = 3
Method: as §1

4T1 tumors = test: 4T1 triple breast cancer model, intratumoral treatment; assay type: in vivo, Balb/c mice
Method: The protocols used in this study were approved by the Institutional Care and Use Committee at Johns Hopkins Medical Institutions. Four- to eight-week-old female Balb/c mice were obtained from Charles River (Wilmington, MA). For the 4T1 […] model, 2.5 × 10^4 4T1 cells were injected into the first mammary fat pad of each mouse. For the CT26 colon carcinoma model, 1.0 × 10^6 CT26 cells were injected subcutaneously in the left flank. The sample size was determined so that the final distribution would be close to normal distribution. After 1 week, the animals were randomized into control and CKS1 treatment. During the randomization, the mice were kept in a cage covered with cloth so that the investigator could not see the tumor size. We started daily intratumoral treatment with 40 mg/kg CKS1. For the control group, the matching volume of water was treated intratumorally. The tumor size was measured by using a caliper, and the volume was calculated by using the formula 0.52 × (length) × (width)^2.
Tumors were fixed by immersion in 10% neutral buffered formalin (Millipore Sigma) for 48 h and subsequently dehydrated by immersion in 70%, 90%, and 100% ethanol followed by xylene for two changes of 30 min each. Tissues were embedded in paraffin blocks at 58 °C and sectioned at 4 μm using a microtome. […]

NGRKACLNPASPIVKKIIEKMLNS-NH2 [CKS1, Chemokinostatin-1]
cell proliferation (BrdU incorporation) (HUVECs): significantly attenuated cell proliferation | cell membrane integrity by electron microscopy (4T1 cells [1]; 30 min): ruptured after 30 min | cell morphology by electron microscopy (4T1 cells [1]; 6 h): apoptotic morphology | mitochondrial membrane potential (JC-1 fluorescence) (4T1 cells [2]): rapid switch of JC-1 emitted fluorescence from red to green | caspase-3 activity in cell lysate (caspase-3; 30 min): not activated | caspase-3 activity in cell lysate (caspase-3; 4 h): activated after 4 h | release of HMGB-1 in the culture media (4T1 cells [3]): weak | release of HMGB-1 in the culture media (CT26 cells): significant release of HMGB-1 | tumor growth (tumor volume) (4T1 tumors; 4T1 tumors, 40 mg/kg intratumoral daily from day 7, N = 15, 40 mg/kg): inhibited; also recorded: relatively modest response | tumor necrosis (H&E stain) (4T1 tumors; established 4T1 tumors, intratumoral injection, 24 h, representative of N = 3): Necrosis was observed
